Measured values from paper PMC8924551, “Functional Characterization of a Flavone Synthase That Participates in a Kumquat Flavone Metabolon” (Frontiers in Plant Science, 2022).

System: T1, FcFNSII-2
T1 construct: microsomes of Saccharomyces cerevisiae WAT11 co-expressing Arabidopsis ATR1 P450 reductase
Experiment: yeast microsome assay, UPLC-Q-TOF-MS, Michaelis-Menten fit
Format: biochemical, Fortunella crassifolia
Conditions: 1 mM NADPH, 100 mM Tris/HCl pH 7.0, 30°C, 1 h; product apigenin

Km: 3.77 µM
SMILES: O=C1C[C@@H](c2ccc(O)cc2)Oc2cc(O)cc(O)c21 [naringenin]
